Laboratory results published in patent publication US20220062233A1 (The Board of Trustees of the Leland Stanford Junior …, priority 2018, published 2022).

Tests used:
[1] = target: T1, interaction between Supt4h and NGN (subunit of Supt5h) (Homo sapiens, UniProt O00267+P63272); experiment: Split Gaussia luciferase complementation assay (M2-8 Luciferase); type: cell-based; details: M2-8 cells
T1 construct: expressed in transfected cells
How it was run: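 HEK293-derived M2-8 cells inducibly express Supt4h-Gluc1 and NGN-Gluc2 fragments (stabilizing mutations) on RheoSwitch ligand addition; ligand plus compound added 24 h after plating and left 24 h. Cells frozen, lysed with 10 μg/ml native coelenterazine, 1 h room temperature dark; complemented luciferase luminescence read.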

[2] = test system: M2-8 cells; experiment: M2-8 Cell viability Assay; type: cell-based; details: at the concentration of 1000 nM
[3] = test system: mutant HTT; experiment: Mutant HTT assay in lymphoblastoid cells (LBC), Western blot; type: cell-based, human; details: read-out: LBC IC20 (nM) mHTT, 3 days compound treatment
How it was run: (§1)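 HD patient lymphoblastoid cells (GM14044, 250 CAG repeats in mutant allele) treated with compound for 3 days. Lysates normalised by BCA, run on SDS-PAGE and immunoblotted: mutant HTT with anti-polyQ MW1, wild-type HTT with anti-Huntingtin antibody, TBP and tubulin also probed. Band intensities quantified by infrared imaging.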

[4] = test system: wild-type HTT; experiment: Wild-type HTT assay in lymphoblastoid cells (LBC), Western blot; type: cell-based, human; details: 3 days compound treatment, read-out: LBC IC20 (nM) wtHTT
How it was run: as §1

[5] = test system: Lymphoblastoid cells (GM14044); experiment: LBC cell viability (Cell Titer-Glo); type: cell-based, human; details: at the concentration of IC20, 3-day compound treatment
Experimental: Cell viability was determined by Cell Titer-Glo reagent (Promega, PRG9243). After 3-day compound treatment, 15 μl of cell suspension was taken out from plate and incubated with 10 μl of CTG reagent. The values of reaction mixture were detected by Tecan.

[6] = test system: Huntington's disease patient iPSCs (ND50036); experiment: iPSC viability at IC20; type: cell-based, human; details: at the concentration of IC20
[7] = test system: mouse hepatocytes; experiment: In vitro metabolic stability in mouse hepatocytes; type: in vitro ADME
Experimental: A. In Vitro Metabolic Stability in Hepatocyte
A compound's metabolic stability was assessed using mouse hepatocytes incubated with pre-defined concentration of test articles over several incubation period. The extent of metabolism was calculated from the disappearance of the test compound measured by liquid chromatography mass spectrometry (LC-MS), compared to that of 0-min control. After incubation, quench solutions including internal standards were added and analyzed by LC/MS. The elimination rate constant and intrinsic clearance (CLhepatocyte) values were calculated by linear regression of the compound elimination over the duration of incubation, normalized to the cell number in the given volume of incubation medium.

Row | Compound | IC50 [1] [nM] | M2-8 Cell viability [2] | IC20 [3] [nM] | IC20 [4] [nM] | LBC viability at IC20 [5] | iPSC viability at IC20 [6] | Mouse HepStability (CLhepatocyte) [7] | elimination in in vitro hepatocyte stability assay (comparison) ([7]; compound #2 versus deuterated compound #42, FIG. 1A)
1 | OCCOCc1ccc(CN[C@@H]2CCCc3c2[nH]c2ccc(Br)cc32)cc1 (single isomer, unassigned) [Compound 28] | ≤ 100 | + (cell viability is greater than 50% at the concentration of 1000 nM) | < 100 | > 1000 | * (cell viability is greater than 60% at the concentration of IC20) | + (cell viability is greater than 75% at the concentration of IC20) | A (CLhepatocyte <10 μl/min/10^6cells) | 
2 | OCc1ccc(CNC2CCCc3c2[nH]c2ccc(Br)cc32)cc1 (stereo not drawn) [Compound 1] | ≤ 100 | + (cell viability is greater than 50% at the concentration of 1000 nM) | 101 to 300 | > 1000 | * (cell viability is greater than 60% at the concentration of IC20) |  | C (CLhepatocyte >30 μl/min/10^6cells) | 
3 | [2H]C([2H])(O)c1ccc(CN[C@@H]2CCCc3c2[nH]c2ccc(Br)cc32)cc1 [Compound 42, (R)-(4-(((6-bromo-2,3,4,9-tetrahydro-1H-carbazol-1-yl)amino)methyl)phenyl)methan-d2-ol] | ≤ 100 | + (cell viability is greater than 50% at the concentration of 1000 nM) | < 100 | > 1000 | * (cell viability is greater than 60% at the concentration of IC20) | + (cell viability is greater than 75% at the concentration of IC20) | C (CLhepatocyte >30 μl/min/10^6cells) | 
4 | CC(C)(O)c1ccc(CN[C@@H]2CCCc3c2[nH]c2ccc(Br)cc32)cc1 [Compound 31, (R)-2-(4-(((6-bromo-2,3,4,9-tetrahydro-1H-carbazol-1-yl)amino)methyl)phenyl)propan-2-ol] | ≤ 100 | + (cell viability is greater than 50% at the concentration of 1000 nM) | < 100 | > 250 | * (cell viability is greater than 60% at the concentration of IC20) | + (cell viability is greater than 75% at the concentration of IC20) | A (CLhepatocyte <10 μl/min/10^6cells) | 
5 | OCc1ccc(CN[C@@H]2CCCc3c2[nH]c2ccc(Br)cc32)cc1 [Compound 2, (R)-(4-(((6-bromo-2,3,4,9-tetrahydro-1H-carbazol-1-yl)amino)methyl)phenyl)methanol] | ≤ 100 | + (cell viability is greater than 50% at the concentration of 1000 nM) | < 100 | > 250 | * (cell viability is greater than 60% at the concentration of IC20) | + (cell viability is greater than 75% at the concentration of IC20) | C (CLhepatocyte >30 μl/min/10^6cells) | more rapidly eliminated
6 | CS(=N)(=O)c1ccc(CN[C@@H]2CCCc3c2[nH]c2ccc(Br)cc32)cc1 (stereo partly drawn) [Compound 49, (4-((((R)-6-bromo-2,3,4,9-tetrahydro-1H-carbazol-1-yl)amino)methyl)phenyl)(imino)(methyl)-λ^6-sulfanone] | ≤ 100 | + (cell viability is greater than 50% at the concentration of 1000 nM) | 101 to 300 | > 500 | * (cell viability is greater than 60% at the concentration of IC20) | + (cell viability is greater than 75% at the concentration of IC20) | B (CLhepatocyte 10-30 μl/min/10^6cells) | 
